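Values below derive from 48-hour exposures of cells grown in 96-well plates, with endpoints linearly interpolated between the two concentrations bracketing the appropriate inhibition level. TGI: total growth inhibition.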
Assays:
Assay in all cases: NCI tumour cell line growth inhibition, 48 h
NCI/ADR-RES ovarian = test system: NCI/ADR-RES ovarian
MDA-N = test system: MDA-N
U251 CNS = test system: U251 CNS
CAKI-1 renal = test system: CAKI-1 renal
NCI-H226 lung = test system: NCI-H226 lung
M14 melanoma = test system: M14 melanoma
SF-539 CNS = test system: SF-539 CNS
SF-268 CNS = test system: SF-268 CNS
A549 NSCLC = test system: A549 NSCLC
A498 renal = test system: A498 renal
LOX IMVI melanoma = test system: LOX IMVI melanoma
DU-145 prostate = test system: DU-145 prostate
786-0 renal = test system: 786-0 renal
HT29 colon = test system: HT29 colon
SW-620 colon = test system: SW-620 colon
NCI-H522 lung = test system: NCI-H522 lung
NCI-H460 lung = test system: NCI-H460 lung
SK-OV-3 ovarian = test system: SK-OV-3 ovarian
SF-295 CNS = test system: SF-295 CNS
T-47D breast = test system: T-47D breast
SK-MEL-28 melanoma = test system: SK-MEL-28 melanoma
SN12C renal = test system: SN12C renal
OVCAR-8 ovarian = test system: OVCAR-8 ovarian
MALME-3M melanoma = test system: MALME-3M melanoma
CCRF-CEM leukemia = test system: CCRF-CEM leukemia
MOLT-4 leukemia = test system: MOLT-4 leukemia
HCT-116 colon = test system: HCT-116 colon
ACHN renal = test system: ACHN renal
UACC-257 melanoma = test system: UACC-257 melanoma
OVCAR-3 ovarian = test system: OVCAR-3 ovarian
HCT-15 colon = test system: HCT-15 colon
SK-MEL-5 melanoma = test system: SK-MEL-5 melanoma
HOP-92 NSCLC = test system: HOP-92 NSCLC
PC-3 prostate = test system: PC-3 prostate
MDA-MB-231 breast = test system: MDA-MB-231 breast
K-562 leukemia = test system: K-562 leukemia
UACC-62 melanoma = test system: UACC-62 melanoma
OVCAR-5 ovarian = test system: OVCAR-5 ovarian
HCC-2998 colon = test system: HCC-2998 colon
RPMI-8226 leukemia = test system: RPMI-8226 leukemia
NCI-H23 lung = test system: NCI-H23 lung
SK-MEL-2 melanoma = test system: SK-MEL-2 melanoma
COLO 205 colon = test system: COLO 205 colon
BT-549 breast = test system: BT-549 breast
MDA-MB-435 = test system: MDA-MB-435
MCF7 breast = test system: MCF7 breast
OVCAR-4 ovarian = test system: OVCAR-4 ovarian
SNB-19 CNS = test system: SNB-19 CNS
UO-31 renal = test system: UO-31 renal
HS 578T breast = test system: HS 578T breast
HL-60(TB) leukemia = test system: HL-60(TB) leukemia
SR leukemia = test system: SR leukemia
TK-10 renal = test system: TK-10 renal
KM12 colon = test system: KM12 colon
HOP-62 NSCLC = test system: HOP-62 NSCLC
RXF 393 renal = test system: RXF 393 renal
IGROV1 ovarian = test system: IGROV1 ovarian
EKVX NSCLC = test system: EKVX NSCLC

CSc1ccc(Nc2cc(=O)[nH]c(=O)[nH]2)cc1
TGI (NCI/ADR-RES ovarian): > 100 µM
TGI (MDA-N): > 100 µM
TGI (U251 CNS): > 100 µM
TGI (CAKI-1 renal): > 100 µM
TGI (NCI-H226 lung): > 100 µM
TGI (M14 melanoma): > 100 µM
TGI (SF-539 CNS): > 100 µM
TGI (SF-268 CNS): > 100 µM
TGI (A549 NSCLC): > 100 µM
TGI (A498 renal): > 100 µM
TGI (LOX IMVI melanoma): > 100 µM
TGI (DU-145 prostate): > 100 µM
TGI (786-0 renal): > 100 µM
TGI (HT29 colon): > 100 µM
TGI (SW-620 colon): > 100 µM
TGI (NCI-H522 lung): > 100 µM
TGI (NCI-H460 lung): > 100 µM
TGI (SK-OV-3 ovarian): > 100 µM
TGI (SF-295 CNS): > 100 µM
TGI (T-47D breast): > 100 µM
TGI (SK-MEL-28 melanoma): > 100 µM
TGI (SN12C renal): > 100 µM
TGI (OVCAR-8 ovarian): > 100 µM
TGI (MALME-3M melanoma): > 100 µM
TGI (CCRF-CEM leukemia): > 100 µM
TGI (MOLT-4 leukemia): > 100 µM
TGI (HCT-116 colon): > 100 µM
TGI (ACHN renal): > 100 µM
TGI (UACC-257 melanoma): > 100 µM
TGI (OVCAR-3 ovarian): > 100 µM
TGI (HCT-15 colon): > 100 µM
TGI (SK-MEL-5 melanoma): > 100 µM
TGI (HOP-92 NSCLC): > 100 µM
TGI (PC-3 prostate): > 100 µM
TGI (MDA-MB-231 breast): > 100 µM
TGI (K-562 leukemia): > 100 µM
TGI (UACC-62 melanoma): > 100 µM
TGI (OVCAR-5 ovarian): > 100 µM
TGI (HCC-2998 colon): > 100 µM
TGI (RPMI-8226 leukemia): > 100 µM
TGI (NCI-H23 lung): > 100 µM
TGI (SK-MEL-2 melanoma): > 100 µM
TGI (COLO 205 colon): > 100 µM
TGI (BT-549 breast): > 100 µM
TGI (MDA-MB-435): > 100 µM
TGI (MCF7 breast): > 100 µM
TGI (OVCAR-4 ovarian): > 100 µM
TGI (SNB-19 CNS): > 100 µM
TGI (UO-31 renal): > 100 µM
TGI (HS 578T breast): > 100 µM
TGI (HL-60(TB) leukemia): > 100 µM
TGI (SR leukemia): > 100 µM

CCC1(c2ccc(N3C(=O)c4cc(OC)c(OC)cc4C3=O)cc2)CCC(=O)NC1=O (centres undefined)
TGI (NCI/ADR-RES ovarian): > 10 µM
TGI (MDA-N): > 10 µM
TGI (U251 CNS): > 10 µM
TGI (CAKI-1 renal): > 10 µM
TGI (NCI-H226 lung): > 10 µM
TGI (M14 melanoma): > 10 µM
TGI (SF-539 CNS): > 10 µM
TGI (SF-268 CNS): > 10 µM
TGI (A549 NSCLC): > 10 µM
TGI (A498 renal): > 10 µM
TGI (LOX IMVI melanoma): > 10 µM
TGI (DU-145 prostate): > 10 µM
TGI (TK-10 renal): > 10 µM
TGI (786-0 renal): > 10 µM
TGI (HT29 colon): > 10 µM
TGI (SW-620 colon): > 10 µM
TGI (NCI-H460 lung): > 10 µM
TGI (SK-OV-3 ovarian): > 10 µM
TGI (SF-295 CNS): > 10 µM
TGI (T-47D breast): > 10 µM
TGI (SK-MEL-28 melanoma): > 10 µM
TGI (SN12C renal): > 10 µM
TGI (OVCAR-8 ovarian): > 10 µM
TGI (KM12 colon): > 10 µM
TGI (MALME-3M melanoma): > 10 µM
TGI (CCRF-CEM leukemia): > 10 µM
TGI (MOLT-4 leukemia): > 10 µM
TGI (HCT-116 colon): > 10 µM
TGI (ACHN renal): > 10 µM
TGI (UACC-257 melanoma): > 10 µM
TGI (OVCAR-3 ovarian): > 10 µM
TGI (HCT-15 colon): > 10 µM
TGI (SK-MEL-5 melanoma): > 10 µM
TGI (HOP-92 NSCLC): > 10 µM
TGI (HOP-62 NSCLC): > 10 µM
TGI (PC-3 prostate): > 10 µM
TGI (MDA-MB-231 breast): > 10 µM
TGI (K-562 leukemia): > 10 µM
TGI (UACC-62 melanoma): > 10 µM
TGI (OVCAR-5 ovarian): > 10 µM
TGI (HCC-2998 colon): > 10 µM
TGI (RPMI-8226 leukemia): > 10 µM
TGI (NCI-H23 lung): > 10 µM
TGI (RXF 393 renal): > 10 µM
TGI (IGROV1 ovarian): > 10 µM
TGI (SK-MEL-2 melanoma): > 10 µM
TGI (COLO 205 colon): > 10 µM
TGI (BT-549 breast): > 10 µM
TGI (MDA-MB-435): > 10 µM
TGI (MCF7 breast): > 10 µM
TGI (OVCAR-4 ovarian): > 10 µM
TGI (EKVX NSCLC): > 10 µM
TGI (SNB-19 CNS): > 10 µM
TGI (UO-31 renal): > 10 µM
TGI (HS 578T breast): > 10 µM
TGI (HL-60(TB) leukemia): > 10 µM
TGI (SR leukemia): > 10 µM

Source: PubChem BioAssay (NCI)
